Source: patent US20250230193A1, “CYCLIC COMPOUND HAVING SELECTIVE KRAS INHIBITORY EFFECT ON HRAS AND NRAS” (CHUGAI SEIYAKU KABUSHIKI KAISHA, priority 2022, published 2025)

Key:
[1] = target: GDP-bound NRAS wild-type protein (Homo sapiens, UniProt P01111); assay: Binding to NRAS by surface plasmon resonance (SPR), Single Cycle Kinetics; conditions: for NRAS/KRAS (ratio of KD value with respect to NRAS to KD value with respect to KRAS): SPR, GDP-bound NRAS wild-type vs GDP-bound KRAS wild-type; for NRAS/KRAS (ratio of KD value with respect to GDP-bound NRAS wild-type protein to KD value with respect to KRAS): class symbols
[2] = target: GDP-bound HRAS wild-type protein (Homo sapiens, UniProt P01112); assay: Binding to HRAS by surface plasmon resonance (SPR), Single Cycle Kinetics; conditions: for HRAS/KRAS (ratio of KD value with respect to HRAS to KD value with respect to KRAS): SPR, GDP-bound HRAS wild-type vs GDP-bound KRAS wild-type; for HRAS/KRAS (ratio of KD value with respect to GDP-bound HRAS wild-type protein to KD value with respect to KRAS): class symbols
GDP-bound HRAS wild-type protein, sequence (P01112 whole entry): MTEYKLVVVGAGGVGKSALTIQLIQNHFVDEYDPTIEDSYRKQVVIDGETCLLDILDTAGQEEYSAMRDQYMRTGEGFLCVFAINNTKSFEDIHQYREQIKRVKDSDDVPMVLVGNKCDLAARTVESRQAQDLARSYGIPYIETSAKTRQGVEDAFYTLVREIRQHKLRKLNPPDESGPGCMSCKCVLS

GDP-bound NRAS wild-type protein, sequence (P01111 whole entry): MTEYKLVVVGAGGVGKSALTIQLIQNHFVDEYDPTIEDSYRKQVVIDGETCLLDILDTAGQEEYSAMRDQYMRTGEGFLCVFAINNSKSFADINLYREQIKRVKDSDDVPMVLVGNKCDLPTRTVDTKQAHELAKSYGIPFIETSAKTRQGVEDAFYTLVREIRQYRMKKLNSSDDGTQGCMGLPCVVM

SMILES | NRAS/KRAS (ratio of KD value with respect to NRAS to KD value with respect to KRAS) ([1]; KD ratio) | HRAS/KRAS (ratio of KD value with respect to HRAS to KD value with respect to KRAS) ([2]; KD ratio) | also measured
CCC[C@H]1C(=O)N[C@@H](C2CCCC2)C(=O)N(C)CC(=O)N(C)[C@H]2C/C=C\CCN(C2=O)[C@@H](Cc2ccc(C)cc2)C(=O)N(C)CC(=O)N[C@@H](CCc2ccc(C(F)(F)F)c(Cl)c2)C(=O)N2C[C@H](OCC)C[C@H]2C(=O)NC2(CC(C)(C)C2)C(=O)N(C)[C@@H](C2CCCC2)C(=O)N(C)[C@H](C(=O)N(C)C)CC(=O)N1C [PP2198] | – | – | NRAS/KRAS (ratio of KD value with respect to NRAS to KD value with respect to KRAS) [1]: A (a compound having 10 or more and less than 20 is denoted as A); HRAS/KRAS (ratio of KD value with respect to HRAS to KD value with respect to KRAS) [2]: A (a compound having 10 or more and less than 20 is denoted as A)
CCC[C@H]1C(=O)N[C@@H]([C@@H](C)CC)C(=O)N(C)CC(=O)N(C)[C@H]2C/C=C\CCN(C2=O)[C@@H](Cc2ccc(C(F)(F)F)cc2)C(=O)N(C)CC(=O)N[C@@H](CCc2ccc(Cl)c(Cl)c2)C(=O)N2C[C@H](OCC)C[C@H]2C(=O)NC2(CC(C)(C)C2)C(=O)N(C)[C@@H](CC(C)(C)C)C(=O)N(C)[C@H](C(=O)N(C)C)CC(=O)N1C [PP2738] | – | – | NRAS/KRAS (ratio of KD value with respect to GDP-bound NRAS wild-type protein to KD value with respect to KRAS) [1]: AA (a compound having 20 or more is denoted as AA); HRAS/KRAS (ratio of KD value with respect to GDP-bound HRAS wild-type protein to KD value with respect to KRAS) [2]: A (a compound having 10 or more and less than 20 is denoted as A)
CCO[C@@H]1C[C@H]2C(=O)NC3(CCC3)C(=O)N(C)[C@@H](C(CC)CC)C(=O)N(C)[C@H](C(=O)N(C)C)CC(=O)N(C)[C@H]3CCCC/C=C/c4ccc(cc4)C[C@@H](C(=O)N(C)CC(=O)N[C@@H](CCc4ccc(Cl)c(Cl)c4)C(=O)N2C1)N1CC/C=C\C[C@@H](C1=O)N(C)C(=O)CN(C1CC1)C(=O)[C@H]([C@@H](C)CC)NC3=O [PP2605] | – | – | NRAS/KRAS (ratio of KD value with respect to GDP-bound NRAS wild-type protein to KD value with respect to KRAS) [1]: AA (a compound having 20 or more is denoted as AA); HRAS/KRAS (ratio of KD value with respect to GDP-bound HRAS wild-type protein to KD value with respect to KRAS) [2]: A (a compound having 10 or more and less than 20 is denoted as A)
CCC(CC)[C@H]1C(=O)N(C)[C@H](C(=O)N(C)C)CC(=O)N(C)[C@@H](COC)C(=O)N[C@@H]([C@@H](C)CC)C(=O)N(C)CC(=O)N(C)[C@H]2C/C=C\CCN(C2=O)[C@@H](CC2CCC(F)(F)CC2)C(=O)N(C)CC(=O)N[C@@H](CCc2cc(F)c(C(F)(F)F)c(F)c2)C(=O)N2C[C@@H](C)C[C@H]2C(=O)NC2(CC(C)(C)C2)C(=O)N1C [PP2448] | – | – | NRAS/KRAS (ratio of KD value with respect to NRAS to KD value with respect to KRAS) [1]: A (a compound having 10 or more and less than 20 is denoted as A); HRAS/KRAS (ratio of KD value with respect to HRAS to KD value with respect to KRAS) [2]: A (a compound having 10 or more and less than 20 is denoted as A)
CCO[C@@H]1C[C@H]2C(=O)NC3(CCC3)C(=O)N(C)[C@@H](C3CCCC3)C(=O)N(C)[C@H](C(=O)N(C)C)CC(=O)N(C)[C@@H](Cc3ccc(Cl)c(Cl)c3)C(=O)N[C@@H]([C@@H](C)CC)C(=O)N(C)CC(=O)N(C)[C@H]3CCCCCN(C3=O)[C@@H](Cc3ccc(C(F)(F)F)cc3)C(=O)N(C)CC(=O)N[C@@H](CCc3cc(F)c(C(F)(F)F)c(F)c3)C(=O)N2C1 [PP1174] | B (a compound having 3 or more and less than 10 is denoted as B) | B (a compound having 3 or more and less than 10 is denoted as B) | –
CCO[C@@H]1C[C@H]2C(=O)NC3(CCC3)C(=O)N(C)[C@@H](C3CCCC3)C(=O)N(C)[C@H](C(=O)N3CCOCC3)CC(=O)N(C)[C@@H](CC)C(=O)N[C@@H]([C@@H](C)CC)C(=O)N3CC[C@H]3C(=O)N(C)[C@H]3C[C@@H](C)CCN(C3=O)[C@@H](Cc3ccc(C(F)(F)F)cc3)C(=O)N(C)CC(=O)N[C@@H](CCc3cc(F)c(C(F)(F)F)c(F)c3)C(=O)N2C1 [PP1028] | B (a compound having 3 or more and less than 10 is denoted as B) | B (a compound having 3 or more and less than 10 is denoted as B) | –
CCO[C@@H]1C[C@H]2C(=O)NC3(CCC3)C(=O)N(C)[C@@H](C3CCCC3)C(=O)N(C)[C@H](C(=O)N(C)C)CC(=O)N(C)[C@@H](CC)C(=O)N[C@@H]([C@@H](C)CC)C(=O)N(C)CC(=O)N(C)[C@H]3CCCCCN(C3=O)[C@@H](Cc3ccc(C(F)(F)F)cc3)C(=O)N(C)CC(=O)N[C@@H](CCc3cc(Cl)c(C(F)(F)F)c(Cl)c3)C(=O)N2C1 [PP0989] | B (a compound having 3 or more and less than 10 is denoted as B) | B (a compound having 3 or more and less than 10 is denoted as B) | –
CCO[C@@H]1C[C@H]2C(=O)NC3(CCC3)C(=O)N(C)[C@@H](C3CCCC3)C(=O)N(CC)[C@H](C(=O)N3CCOCC3)CC(=O)N(C)[C@@H](CCC(F)F)C(=O)N[C@@H]([C@@H](C)CC)C(=O)N(C)CC(=O)N(C)[C@H]3CCCCCN(C3=O)[C@@H](Cc3ccc(C(F)(F)F)cc3)C(=O)N(C)CC(=O)N[C@@H](CCc3cc(F)c(C(F)(F)F)c(F)c3)C(=O)N2C1 [PP0948] | A (a compound having 10 or more and less than 20 is denoted as A) | A (a compound having 10 or more and less than 20 is denoted as A) | –
